Data as given in US12503448B2, “Antibacterial and antiparasitic quinoxaline-2,3-diamine derivatives” (University College Cardiff Consultants Limited, priority 2019, dated 2025).
In brackets after ≈: the same amount, converted by molar mass. Where two headings read alike, the source gives them in different places.

How the values were obtained:
[1] = test system: F. hepatica newly excysted juveniles (NEJs); test: Newly excysted juveniles (NEJs) drug screen; type: cell-based, Fasciola hepatica; design: scale not given here; conditions: 10 μM, 72 h; higher score indicates lower worm activity
Summary of the method: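 Italian-strain F. hepatica NEJs, 25 per well, exposed to compound at 10 μM (0.1% DMSO) for 72 h at 37 °C, 5% CO2. Each parasite scored for phenotype and motility; averaged over two replicates, higher score meaning lower worm activity.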

[2] = test system: S. aureus ATCC 29213; test: In vitro antibacterial activity; type: cell-based; conditions: Staphylococcus aureus, ATCC29213
[3] = test system: M. smegmatis mc^2 15 ATCC 700084; test: In vitro antibacterial activity; type: cell-based, Mycobacterium smegmatis; conditions: Mycolicibacterium smegmatis, ATCC700084
[4] = test system: MRSA USA 300; test: In vitro antibacterial activity; type: cell-based; conditions: Staphylococcus aureus
[5] = test system: MRSA EM RSA; test: In vitro antibacterial activity; type: cell-based; conditions: Staphylococcus aureus
Excerpt: (§1) In vitro Determination of Antibacterial Activity
(§2) Scientific Reports 8 (1), 2018. Bacterial strains of Enterococcus faecalis—ATCC 29212, NCTC 12201, ATCC 51299; Streptococcus pneumoniae—ATCC 49619, 18778, 21394, 21395; Haemophilus influenza—ATCC 49766, 18391, 17428; Staphylococcus aureus—NCTC 12493, ATCC BAA-077, ATCC 700698, 11051; used for testing the compounds, as previously described in “Clinical laboratory testing and in vitro diagnostics test systems—Susceptibility testing of infectious agents and evaluation of performance of antimicrobial susceptibility devices—Part 1: Reference methods for testing the in vitro activity of antimicrobial agentes against bacteria involved in infectious diseases, ISO/FDIS 20776-1:2006(E). All the procedures were carried out in a biosafety containment level 2.

[6] = test system: Pseudomonas aeruginosa ATCC 27853; test: In vitro antibacterial activity; type: cell-based; conditions: ATCC27853
[7] = test system: Enterococcus faecalis ATCC 29212; test: Antibacterial MIC (ISO 20776-1); type: cell-based; conditions: ATCC29212
Excerpt: as §1, §2

[8] = test system: Enterococcus faecalis ATCC 51299; test: Antibacterial MIC (ISO 20776-1); type: cell-based; conditions: ATCC51299; Enterococcus faecalis ATCC 51299, Vancomycin resistance, vanB
Excerpt: as §1, §2

[9] = test system: Enterococcus faecalis NCTC 12201; test: Antibacterial MIC (ISO 20776-1); type: cell-based; conditions: NCTC12201; Enterococcus faecalis NCTC 12201, Vancomycin resistance, vanA
Excerpt: as §1, §2

[10] = test system: Haemophilus influenzae 17428; test: Antibacterial MIC (ISO 20776-1); type: cell-based; conditions: Haemophilus influenzae 17428, Ampicillin resistance, PBP
Excerpt: as §1, §2

[11] = test system: Haemophilus influenzae 18391; test: Antibacterial MIC (ISO 20776-1); type: cell-based; conditions: Haemophilus influenzae 18391, AMP/COA resistance, PBP/β-lactamase
Excerpt: as §1, §2

[12] = test system: Haemophilus influenzae ATCC 49766; test: Antibacterial MIC (ISO 20776-1); type: cell-based; conditions: ATCC49766
Excerpt: as §1, §2

[13] = test system: Staphylococcus aureus 11051; test: Antibacterial MIC (ISO 20776-1); type: cell-based
Excerpt: as §1, §2

[14] = test system: Staphylococcus aureus ATCC 700698; test: Antibacterial MIC (ISO 20776-1); type: cell-based; conditions: ATCC700698
Excerpt: as §1, §2

[15] = test system: Staphylococcus aureus ATCC BAA-977; test: Antibacterial MIC (ISO 20776-1); type: cell-based; conditions: ATCCBAA977
Excerpt: as §1, §2

[16] = test system: Staphylococcus aureus NCTC 12493; test: Antibacterial MIC (ISO 20776-1); type: cell-based; conditions: NCTC12493
Excerpt: as §1, §2

[17] = test system: Streptococcus pneumoniae 18778; test: Antibacterial MIC (ISO 20776-1); type: cell-based
Excerpt: as §1, §2

[18] = test system: Streptococcus pneumoniae 21394; test: Antibacterial MIC (ISO 20776-1); type: cell-based
Excerpt: as §1, §2

[19] = test system: Streptococcus pneumoniae 21395; test: Antibacterial MIC (ISO 20776-1); type: cell-based
Excerpt: as §1, §2

[20] = test system: Streptococcus pneumoniae ATCC 49619; test: Antibacterial MIC (ISO 20776-1); type: cell-based; conditions: ATCC49619
Excerpt: as §1, §2

[21] = Mouse pharmacokinetics, oral cassette dosing
Method: Non-compartmental mouse pharmacokinetics (Male C57/BL6 Mouse, Fasted; 3 mice per group) were determined after oral administration of a nominal dose of 2.5 mg/kg of these formulations in cassettes (5 compounds/group) according to the protocols employed by WuXi (https://www.wuxiapptec.com; the CRO that conducted these studies).

[22] = S. aureus ATCC 29213, read-out: MIC90
[23] = Streptococcus pneumoniae, 18778
[24] = Streptococcus pneumoniae, 21394
[25] = Streptococcus pneumoniae, 21395
[26] = Staphylococcus aureus ATCC 700698, Vancomycin resistance, hVISA, read-out: MIC
[27] = male, C57/BL6, mouse, plasma, po, 2.5 mg/kg
[28] = M. smegmatis mc^2 15 ATCC 700084, read-out: MIC90
[29] = Pseudomonas aeruginosa ATCC 27853, read-out: MIC90
[30] = Enterococcus faecalis ATCC 29212, read-out: MIC
[31] = Staphylococcus aureus 11051, Tetracycline resistance, read-out: MIC
[32] = Staphylococcus aureus ATCC BAA-977, ERY/CLIND resistance, MLSB, read-out: MIC
[33] = Staphylococcus aureus NCTC 12493, Flucloxacillin resistance, mecA, read-out: MIC
[34] = Streptococcus pneumoniae 18778, ERY, TET resistance, read-out: MIC
[35] = Streptococcus pneumoniae 21394, Penicillin resistance, PBP, read-out: MIC
[36] = Streptococcus pneumoniae 21395, ERY, CLIND resistance, MLSB, read-out: MIC
[37] = Streptococcus pneumoniae ATCC 49619, read-out: MIC
[38] = oral, nominal dose 2.5 mg/kg, cassette

Row | Structure (SMILES) | Motility (M) Mean score [1] | Phenotype (P) Mean score [1] | MIC90 [2, 22] [µg/mL] | MIC90 [3] [µg/mL] | MIC90 [4] [µg/mL] | MIC90 [5] [µg/mL] | MIC90 ([6]; Pseudomonas aeruginosa) [µg/mL] | MIC ([7]; Enterococcus faecalis) [µg/mL] | MIC [8] [µg/mL] | MIC [9] [µg/mL] | MIC [10] [µg/mL] | MIC [11] [µg/mL] | MIC [12] [µg/mL] | MIC ([13]; Staphylococcus aureus, 11051) [µg/mL] | MIC ([15]; Staphylococcus aureus) [µg/mL] | MIC [14, 26] [µg/mL] | AUC(0-t) [21, 27] [ng·h/mL] | Cmax [21, 27] [ng/mL] | MRT last [21, 27] [h] | Tmax [21, 27] [h] | further results
1 | O=[N+]([O-])c1ccc2nc(Nc3cccc(Cl)c3)c(Nc3cccc(Cl)c3)nc2c1 [Compound 5, N^2, N^3-bis(3-chlorophenyl)-6-nitroquinoxaline-2,3-diamine] | 4.20 | 4.70 | < 3.91 | > 125 | 3.91 (≈ 9.17 µM) | 3.91 (≈ 9.17 µM) | > 125 | 0.25 (≈ 0.586 µM) | 0.25 (≈ 0.586 µM) | 0.06 (≈ 0.141 µM) | 8 (≈ 18.8 µM) | 8 (≈ 18.8 µM) | 4 (≈ 9.38 µM) | 0.125 (≈ 0.293 µM) | 0.125 (≈ 0.293 µM) | – | – | – | – | – | MIC ([14]; Staphylococcus aureus): 0.125 µg/mL (≈ 0.293 µM); MIC ([16]; Staphylococcus aureus): 0.06 µg/mL (≈ 0.141 µM); MIC [17, 23]: 8 µg/mL (≈ 18.8 µM); MIC [18, 24]: 4 µg/mL (≈ 9.38 µM); MIC [19, 25]: 4 µg/mL (≈ 9.38 µM); MIC ([20]; Streptococcus pneumoniae): 4 µg/mL (≈ 9.38 µM)
2 | O=[N+]([O-])c1ccc2nc(Nc3ccc(F)c(C(F)(F)F)c3)c(Nc3ccc(F)c(C(F)(F)F)c3)nc2c1 [Compound 7, N^2, N^3-bis(4-fluoro-3-(trifluoromethyl)phenyl)-6-nitroquinoxaline-2,3-diamine] | 4.56 | 5.00 | – | 62.5 (≈ 118 µM) | < 3.91 | 7.81 (≈ 14.8 µM) | > 125 | 1 (≈ 1.89 µM) | 0.5 (≈ 0.945 µM) | 0.5 (≈ 0.945 µM) | > 64 | > 64 | > 64 | 0.5 (≈ 0.945 µM) | 0.5 (≈ 0.945 µM) | 0.5 (≈ 0.945 µM) | 89.6 | 21.2 | 4.75 | 4 | MIC90 [2]: 1.95 µg/mL (≈ 3.68 µM); MIC ([16]; Staphylococcus aureus): 0.5 µg/mL (≈ 0.945 µM); MIC [17, 23]: 32 µg/mL (≈ 60.5 µM); MIC [18, 24]: 32 µg/mL (≈ 60.5 µM); MIC [19, 25]: 8 µg/mL (≈ 15.1 µM); MIC ([20]; Streptococcus pneumoniae): 8 µg/mL (≈ 15.1 µM)
3 | O=[N+]([O-])c1ccc2nc(Nc3ccc(C(F)(F)F)cc3)c(Nc3ccc(C(F)(F)F)cc3)nc2c1 [Compound 11, 6-nitro-N^2, N^3-bis(4-(trifluoromethyl)phenyl)quinoxaline-2,3-diamine] | 4.17 | 4.28 | 0.98 (≈ 1.99 µM) | – | < 3.91 | 3.91 (≈ 7.93 µM) | – | – | 0.25 (≈ 0.507 µM) | 0.06 (≈ 0.122 µM) | 16 (≈ 32.4 µM) | 16 (≈ 32.4 µM) | 16 (≈ 32.4 µM) | – | – | 0.125 (≈ 0.253 µM) | 419 | 68.8 | 6.5 | 4 | MIC90 [3, 28]: 31.2 µg/mL (≈ 63.3 µM); MIC90 [6, 29]: > 125 µg/mL; MIC [7, 30]: 0.06 µg/mL (≈ 0.122 µM); MIC [13, 31]: 0.125 µg/mL (≈ 0.253 µM); MIC [15, 32]: 0.125 µg/mL (≈ 0.253 µM); MIC [16, 33]: 0.125 µg/mL (≈ 0.253 µM); MIC [17, 34]: 4 µg/mL (≈ 8.11 µM); MIC [18, 35]: 4 µg/mL (≈ 8.11 µM); MIC [19, 36]: 2 µg/mL (≈ 4.05 µM); MIC [20, 37]: 2 µg/mL (≈ 4.05 µM); half-life ([21]; male, C57/BL6, mouse, in vivo, po, 2.5 mg/kg): 3.74 h; AUC(0-inf) [21, 27]: 444 ng·h/mL; MRT inf [21, 27]: 7.84 h; AUCExtra [21, 38]: 1.82%; AUMCExtra [21, 38]: 6.77%
4 | COc1ccc(Nc2nc3ccc([N+](=O)[O-])cc3nc2Nc2ccc(OC)c(C(F)(F)F)c2)cc1C(F)(F)F [Compound 12, N^2, N^3-bis(4-methoxy-3-(tritluoromethyl)phenyl)-6-nitroquinoxaline-2,3-diamine] | 4.45 | 4.70 | 62.5 (≈ 113 µM) | – | 15.6 (≈ 28.2 µM) | 31.2 (≈ 56.5 µM) | – | – | 1 (≈ 1.81 µM) | 0.5 (≈ 0.903 µM) | > 128 | 64 (≈ 116 µM) | 64 (≈ 116 µM) | – | – | 1 (≈ 1.81 µM) | 77.8 | 20.1 | 4.76 | 4 | MIC90 [3, 28]: > 125 µg/mL; MIC90 [6, 29]: > 125 µg/mL; MIC [7, 30]: 0.5 µg/mL (≈ 0.903 µM); MIC [13, 31]: 2 µg/mL (≈ 3.61 µM); MIC [15, 32]: 1 µg/mL (≈ 1.81 µM); MIC [16, 33]: 1 µg/mL (≈ 1.81 µM); MIC [17, 34]: 16 µg/mL (≈ 28.9 µM); MIC [18, 35]: 8 µg/mL (≈ 14.5 µM); MIC [19, 36]: 8 µg/mL (≈ 14.5 µM); MIC [20, 37]: 8 µg/mL (≈ 14.5 µM)
